As a reminder, the IC50 is the midpoint of a concentration-inhibition curve. The term EC50 denotes the concentration needed to bring the measured effect to its halfway point.

The source of these data is ChEMBL document CHEMBL3734721 (J Med Chem, 2015).

For data set [1], the target named is T1, Alpha-2A adrenergic receptor (Homo sapiens, UniProt P08913).
T1 sequence (P08913 whole entry): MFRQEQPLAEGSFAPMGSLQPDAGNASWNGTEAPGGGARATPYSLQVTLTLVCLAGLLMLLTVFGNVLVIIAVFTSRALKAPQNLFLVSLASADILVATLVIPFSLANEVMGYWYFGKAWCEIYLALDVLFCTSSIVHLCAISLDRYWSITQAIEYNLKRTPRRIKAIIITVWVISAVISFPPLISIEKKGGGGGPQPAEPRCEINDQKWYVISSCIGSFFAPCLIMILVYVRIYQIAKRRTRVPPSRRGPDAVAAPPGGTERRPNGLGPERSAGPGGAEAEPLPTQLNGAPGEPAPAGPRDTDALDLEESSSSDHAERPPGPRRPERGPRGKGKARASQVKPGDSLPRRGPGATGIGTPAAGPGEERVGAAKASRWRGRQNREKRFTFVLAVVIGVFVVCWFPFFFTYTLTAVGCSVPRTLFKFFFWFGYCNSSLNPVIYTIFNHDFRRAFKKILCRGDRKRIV
Put plainly: Antagonist activity at human wild-type alpha 2A receptor expressed in CHO-K1 cells assessed as epinephrine-induced cAMP by HTRF assay. The data set is classed as functional, cell-based.

Data set [2] concerns the target T2, Muscarinic acetylcholine receptor M1 (Homo sapiens, UniProt P11229).
T2 sequence (P11229 whole entry): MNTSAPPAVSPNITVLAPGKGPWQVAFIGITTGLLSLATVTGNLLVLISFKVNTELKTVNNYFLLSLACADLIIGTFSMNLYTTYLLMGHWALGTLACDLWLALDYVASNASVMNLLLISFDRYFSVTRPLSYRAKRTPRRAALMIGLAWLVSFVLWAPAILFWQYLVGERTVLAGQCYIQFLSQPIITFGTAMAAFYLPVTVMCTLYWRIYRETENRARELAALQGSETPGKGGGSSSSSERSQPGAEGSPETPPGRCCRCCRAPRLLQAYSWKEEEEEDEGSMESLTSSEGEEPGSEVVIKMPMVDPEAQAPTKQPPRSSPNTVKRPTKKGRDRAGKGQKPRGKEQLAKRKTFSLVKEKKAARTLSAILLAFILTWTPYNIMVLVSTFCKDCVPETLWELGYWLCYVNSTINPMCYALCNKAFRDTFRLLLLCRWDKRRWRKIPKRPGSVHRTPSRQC
Put plainly: Agonist activity at human wild-type M1 receptor expressed in CHO-K1 cells assessed as calcium level by FDSS assay. The data set is classed as functional, cell-based.

Data set [3] can be described thus: Chemical stability of compound in DMSO assessed as compound remaining at 10 mg/ml after 1 day at room temperature. It counts as physicochemical. The conditions noted are these: read-out: Stability.
The target in data set [4] is T3, Adenosine receptor A2a (Homo sapiens, UniProt P29274). Nature of the data set: Agonist activity at human wild-type A2A receptor expressed in CHO-K1 cells assessed as cAMP level by HTRF assay. It counts as functional, cell-based. Background: cAMP levels reflect the balance of adenylyl cyclase and phosphodiesterase activity.
The target of data set [5] is 5-hydroxytryptamine receptor 1B (Homo sapiens, UniProt P28222). Put plainly: Antagonist activity at human 5-HT1B receptor expressed in CHO-K1 cells assessed as seretonin-induced cAMP level by HTRF assay. The data set is classed as functional, cell-based.
Data set [6] deals with Muscarinic acetylcholine receptor M3 (Homo sapiens, UniProt P20309). Nature of the data set: Agonist activity at human wild-type M3 receptor expressed in CHO-K1 cells assessed as calcium level by FDSS assay. The data set is classed as functional, cell-based.
The target in data set [7] is Kappa-type opioid receptor (Homo sapiens, UniProt P41145). Put plainly: Agonist activity at human wild-type opioid-kappa 1 receptor expressed in CHO-K1 cells assessed as cAMP level by HTRF assay. It counts as functional, cell-based.
Data set [8] concerns the target 5-hydroxytryptamine receptor 2B (Homo sapiens, UniProt P41595). Nature of the data set: Antagonist activity at human 5-HT2B receptor expressed in CHO-K1 cells assessed as seretonin-induced calcium level by FDSS assay. It counts as functional, cell-based.
A short description of data set [9]: Intrinsic clearance in rat liver microsomes at 1 uM by HPLC/MS/MS analysis. Conditions: read-out: CLH. The data set is classed as ADME. For orientation: Liver microsomes are vesicles of endoplasmic reticulum, rich in cytochrome P450 enzymes.
For a further data set, the target named is T4, Endothelin-1 receptor (Homo sapiens, UniProt P25101).
T4 sequence (P25101 whole entry): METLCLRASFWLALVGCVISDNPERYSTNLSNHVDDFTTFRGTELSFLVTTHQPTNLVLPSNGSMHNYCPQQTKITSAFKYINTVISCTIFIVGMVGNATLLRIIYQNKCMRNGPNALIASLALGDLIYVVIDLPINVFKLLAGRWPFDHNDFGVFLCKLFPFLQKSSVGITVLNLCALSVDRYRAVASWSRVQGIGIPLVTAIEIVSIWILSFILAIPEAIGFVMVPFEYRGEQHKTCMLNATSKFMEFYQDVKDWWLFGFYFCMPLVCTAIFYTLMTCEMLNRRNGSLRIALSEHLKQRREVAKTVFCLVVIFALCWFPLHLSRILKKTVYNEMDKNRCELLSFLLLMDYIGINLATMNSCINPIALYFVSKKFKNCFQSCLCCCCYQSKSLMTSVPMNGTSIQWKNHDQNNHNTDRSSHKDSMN
Nature of the data set: Agonist activity at human wild-type ETA receptor expressed in CHO-K1 cells assessed as calcium level by HTRF assay. It counts as functional, cell-based. A general note: In TR-FRET formats the signal depends on donor and acceptor labels being close together.

For a further data set, the target named is D(2) dopamine receptor (Homo sapiens, UniProt P14416). Put plainly: Agonist activity at human wild-type D2 receptor expressed in CHO-K1 cells assessed as cAMP level by HTRF assay. It counts as functional, cell-based.
The next data set concerns the target Cytochrome P450 2C9 (Homo sapiens, UniProt P11712). Nature of the data set: Inhibition of human CYP2C9 by LC-MS analysis. The data set is classed as ADME.
Data set [10] concerns the target T3, Adenosine receptor A2a. Put plainly: Antagonist activity at human wild-type A2A receptor expressed in CHO-K1 cells assessed as NECA-induced cAMP by HTRF assay. It counts as functional, cell-based.
In data set [11] the target is Beta-2 adrenergic receptor (Homo sapiens, UniProt P07550). Put plainly: Antagonist activity at human beta2 receptor expressed in CHO-K1 cells assessed as isoproterenol-induced cAMP level by HTRF assay. The data set is classed as functional, cell-based.
Another data set concerns the target T5, Cytochrome P450 2C8 (Homo sapiens, UniProt P10632).
T5 sequence (P10632 whole entry): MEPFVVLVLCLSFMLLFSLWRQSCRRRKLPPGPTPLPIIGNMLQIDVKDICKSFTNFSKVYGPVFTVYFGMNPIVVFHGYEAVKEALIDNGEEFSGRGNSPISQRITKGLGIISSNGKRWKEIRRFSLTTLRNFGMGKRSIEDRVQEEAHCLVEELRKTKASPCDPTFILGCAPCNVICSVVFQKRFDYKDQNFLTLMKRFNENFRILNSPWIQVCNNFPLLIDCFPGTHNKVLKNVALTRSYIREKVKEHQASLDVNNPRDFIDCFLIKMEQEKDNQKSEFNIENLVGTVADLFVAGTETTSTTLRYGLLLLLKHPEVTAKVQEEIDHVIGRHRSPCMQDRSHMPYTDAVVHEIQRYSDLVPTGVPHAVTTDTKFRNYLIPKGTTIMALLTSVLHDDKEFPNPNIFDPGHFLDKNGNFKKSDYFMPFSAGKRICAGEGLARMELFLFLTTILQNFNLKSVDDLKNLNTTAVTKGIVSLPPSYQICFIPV
Put plainly: Inhibition of human CYP2C8 by LC-MS analysis. The data set is classed as ADME.

T3 sequence (P29274 whole entry): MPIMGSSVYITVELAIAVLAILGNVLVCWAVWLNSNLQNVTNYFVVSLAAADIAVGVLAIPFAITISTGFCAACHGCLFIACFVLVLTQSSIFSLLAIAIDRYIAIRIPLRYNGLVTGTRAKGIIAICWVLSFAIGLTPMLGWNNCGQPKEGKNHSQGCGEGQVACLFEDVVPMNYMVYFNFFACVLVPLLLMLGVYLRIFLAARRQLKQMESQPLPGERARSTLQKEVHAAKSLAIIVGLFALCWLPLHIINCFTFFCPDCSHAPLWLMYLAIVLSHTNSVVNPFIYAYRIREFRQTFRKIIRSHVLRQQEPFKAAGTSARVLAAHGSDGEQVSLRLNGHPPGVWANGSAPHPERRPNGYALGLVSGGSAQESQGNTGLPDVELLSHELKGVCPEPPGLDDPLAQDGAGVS
Chain of Beta-2 adrenergic receptor (P07550 whole entry): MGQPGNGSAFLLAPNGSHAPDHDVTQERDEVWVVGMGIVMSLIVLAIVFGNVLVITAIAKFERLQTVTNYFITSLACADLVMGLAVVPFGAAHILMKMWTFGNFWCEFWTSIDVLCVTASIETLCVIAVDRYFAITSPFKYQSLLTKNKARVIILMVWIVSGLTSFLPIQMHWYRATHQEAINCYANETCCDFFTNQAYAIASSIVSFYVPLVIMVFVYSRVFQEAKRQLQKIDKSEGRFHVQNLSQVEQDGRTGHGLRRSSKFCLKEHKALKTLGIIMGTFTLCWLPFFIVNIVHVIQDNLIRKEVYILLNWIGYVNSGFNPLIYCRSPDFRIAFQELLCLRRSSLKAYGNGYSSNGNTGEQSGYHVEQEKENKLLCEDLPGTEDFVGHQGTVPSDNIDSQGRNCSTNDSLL
Chain of Muscarinic acetylcholine receptor M3 (P20309 whole entry): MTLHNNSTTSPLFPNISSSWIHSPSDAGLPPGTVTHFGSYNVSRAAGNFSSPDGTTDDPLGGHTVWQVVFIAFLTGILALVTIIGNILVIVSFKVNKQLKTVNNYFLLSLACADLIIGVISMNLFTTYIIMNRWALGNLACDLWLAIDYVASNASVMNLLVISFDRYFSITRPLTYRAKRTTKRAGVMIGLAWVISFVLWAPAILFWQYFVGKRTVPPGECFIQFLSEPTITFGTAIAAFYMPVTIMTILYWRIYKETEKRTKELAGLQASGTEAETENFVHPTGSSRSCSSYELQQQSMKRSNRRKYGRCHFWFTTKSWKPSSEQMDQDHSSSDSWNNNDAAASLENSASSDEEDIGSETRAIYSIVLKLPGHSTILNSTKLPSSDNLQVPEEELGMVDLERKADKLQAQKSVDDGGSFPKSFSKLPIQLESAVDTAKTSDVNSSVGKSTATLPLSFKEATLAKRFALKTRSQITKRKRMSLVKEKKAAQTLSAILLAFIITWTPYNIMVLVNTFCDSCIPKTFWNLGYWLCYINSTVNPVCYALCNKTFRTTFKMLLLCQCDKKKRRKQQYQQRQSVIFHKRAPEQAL
Chain of Kappa-type opioid receptor (P41145 whole entry): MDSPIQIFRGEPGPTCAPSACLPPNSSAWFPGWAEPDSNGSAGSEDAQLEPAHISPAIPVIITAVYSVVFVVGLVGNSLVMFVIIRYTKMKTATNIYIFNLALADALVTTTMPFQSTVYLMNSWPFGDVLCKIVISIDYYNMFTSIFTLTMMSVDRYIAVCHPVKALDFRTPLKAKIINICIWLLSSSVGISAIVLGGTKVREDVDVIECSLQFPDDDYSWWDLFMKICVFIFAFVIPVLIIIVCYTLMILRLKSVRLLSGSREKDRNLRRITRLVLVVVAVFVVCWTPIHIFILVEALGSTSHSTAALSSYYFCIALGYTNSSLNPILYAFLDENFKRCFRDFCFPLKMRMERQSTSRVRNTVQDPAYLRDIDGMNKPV
Chain of D(2) dopamine receptor (P14416 whole entry): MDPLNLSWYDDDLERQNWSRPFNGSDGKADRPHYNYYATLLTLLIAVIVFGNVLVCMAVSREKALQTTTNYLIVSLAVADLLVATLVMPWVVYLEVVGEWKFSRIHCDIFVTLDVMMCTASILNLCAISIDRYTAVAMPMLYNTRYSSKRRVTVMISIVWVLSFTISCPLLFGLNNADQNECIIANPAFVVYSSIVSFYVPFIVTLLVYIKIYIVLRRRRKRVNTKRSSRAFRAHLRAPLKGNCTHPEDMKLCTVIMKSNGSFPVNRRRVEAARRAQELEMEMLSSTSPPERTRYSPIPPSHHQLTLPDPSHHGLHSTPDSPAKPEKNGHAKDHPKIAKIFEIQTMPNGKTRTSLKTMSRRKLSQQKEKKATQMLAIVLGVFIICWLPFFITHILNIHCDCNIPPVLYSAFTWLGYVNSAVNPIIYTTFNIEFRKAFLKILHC
Chain of 5-hydroxytryptamine receptor 1B (P28222 whole entry): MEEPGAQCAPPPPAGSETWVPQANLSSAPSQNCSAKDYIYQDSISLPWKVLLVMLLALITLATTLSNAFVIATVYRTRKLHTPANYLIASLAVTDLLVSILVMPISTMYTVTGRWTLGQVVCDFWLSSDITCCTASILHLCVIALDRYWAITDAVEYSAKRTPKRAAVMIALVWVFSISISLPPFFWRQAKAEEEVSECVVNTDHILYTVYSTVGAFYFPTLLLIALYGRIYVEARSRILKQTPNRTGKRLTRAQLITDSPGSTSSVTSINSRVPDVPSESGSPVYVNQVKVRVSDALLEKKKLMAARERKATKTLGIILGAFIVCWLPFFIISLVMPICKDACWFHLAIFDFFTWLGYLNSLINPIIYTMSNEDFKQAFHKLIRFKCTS
Chain of Cytochrome P450 2C9 (P11712 whole entry): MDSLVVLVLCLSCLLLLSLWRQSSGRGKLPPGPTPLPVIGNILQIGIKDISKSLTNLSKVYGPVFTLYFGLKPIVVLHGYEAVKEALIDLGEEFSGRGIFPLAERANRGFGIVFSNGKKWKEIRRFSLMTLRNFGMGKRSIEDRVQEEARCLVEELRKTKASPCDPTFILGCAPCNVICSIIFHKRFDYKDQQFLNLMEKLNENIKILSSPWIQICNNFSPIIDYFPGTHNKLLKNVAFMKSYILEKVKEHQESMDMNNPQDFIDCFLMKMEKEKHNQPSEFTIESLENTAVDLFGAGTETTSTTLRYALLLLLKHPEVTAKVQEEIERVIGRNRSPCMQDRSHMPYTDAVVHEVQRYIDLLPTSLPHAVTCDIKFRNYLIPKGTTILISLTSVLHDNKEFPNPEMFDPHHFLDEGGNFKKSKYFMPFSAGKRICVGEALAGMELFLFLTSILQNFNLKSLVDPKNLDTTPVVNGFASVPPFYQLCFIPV
Chain of 5-hydroxytryptamine receptor 2B (P41595 whole entry): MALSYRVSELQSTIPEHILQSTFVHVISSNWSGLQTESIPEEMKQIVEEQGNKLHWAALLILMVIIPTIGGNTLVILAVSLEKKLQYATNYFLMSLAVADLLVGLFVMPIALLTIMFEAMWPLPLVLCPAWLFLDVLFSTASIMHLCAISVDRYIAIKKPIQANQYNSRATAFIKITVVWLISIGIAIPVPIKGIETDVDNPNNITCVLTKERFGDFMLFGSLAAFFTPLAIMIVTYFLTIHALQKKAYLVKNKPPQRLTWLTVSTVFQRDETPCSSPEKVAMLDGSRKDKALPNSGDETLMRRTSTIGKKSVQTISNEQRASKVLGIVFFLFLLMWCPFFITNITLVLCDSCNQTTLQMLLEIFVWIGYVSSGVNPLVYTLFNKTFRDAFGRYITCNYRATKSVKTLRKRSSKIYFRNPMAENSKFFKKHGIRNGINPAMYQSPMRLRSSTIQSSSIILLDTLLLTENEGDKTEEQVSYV

As for `CB1C=Cc2cccc(OCC(O)CNC(C)C)c2N1` (stereo not given), the IC50 was more than 5.01 µM in data set [1]; more than 5.01 µM in [5]; more than 5.01 µM in [8]; more than 10 µM on Cytochrome P450 2C9; more than 5.01 µM at Adenosine receptor A2a [10]; 0.501 µM in [11]. Moreover, on Cytochrome P450 2C8, the concentration for half-maximal inhibition (IC50) is more than 10 µM. Besides, the EC50 (in data set [2]; at Adenosine receptor A2a [4]; in [6]; in [7]; on Endothelin-1 receptor; at D(2) dopamine receptor) was more than 5.01 µM throughout. For the same molecule, the remaining at 24 h, 10 mg/ml in data set [3] came out at 96%. Also, the microsomal CLint at 1 µM in data set [9] was 289 µL/min/mg.

Turning to `CB1C=Cc2c(cccc2OCC(O)CN(C)C)N1` (stereo not given), the IC50 is more than 5.01 µM in data set [1]; more than 5.01 µM in data set [5]; more than 5.01 µM in data set [8]; more than 10 µM at Cytochrome P450 2C9; more than 5.01 µM on Adenosine receptor A2a [10]; 0.1 µM in data set [11]. On Cytochrome P450 2C8, this molecule had a 50% inhibitory concentration (IC50) of more than 10 µM. Besides, the EC50 (in data set [2]; on Adenosine receptor A2a [4]; in data set [6]; in [7]; on Endothelin-1 receptor; at D(2) dopamine receptor) was more than 5.01 µM throughout. The remaining at 24 h, 10 mg/ml in [3] was found to be 97%. In addition, the microsomal CLint at 1 µM in data set [9] is more than 346 µL/min/mg.
